Assay results: ChEMBL document CHEMBL1201862, “PubChem BioAssay data set” (2004)
Activity calls are given as the source filed them.

What was measured:
[1] = target: Potassium voltage-gated channel subfamily KQT member 2 (Rattus norvegicus, UniProt O88943); test: blockers of KCNQ2 channel current – cell-based, automated electrophysiology, set II, rat KCNQ2, dose response (AID 588637); type: functional
[2] = target: T1, Histone-lysine N-methyltransferase NSD2 (Homo sapiens, UniProt O96028); type: biochemical
T1 sequence (O96028 whole entry): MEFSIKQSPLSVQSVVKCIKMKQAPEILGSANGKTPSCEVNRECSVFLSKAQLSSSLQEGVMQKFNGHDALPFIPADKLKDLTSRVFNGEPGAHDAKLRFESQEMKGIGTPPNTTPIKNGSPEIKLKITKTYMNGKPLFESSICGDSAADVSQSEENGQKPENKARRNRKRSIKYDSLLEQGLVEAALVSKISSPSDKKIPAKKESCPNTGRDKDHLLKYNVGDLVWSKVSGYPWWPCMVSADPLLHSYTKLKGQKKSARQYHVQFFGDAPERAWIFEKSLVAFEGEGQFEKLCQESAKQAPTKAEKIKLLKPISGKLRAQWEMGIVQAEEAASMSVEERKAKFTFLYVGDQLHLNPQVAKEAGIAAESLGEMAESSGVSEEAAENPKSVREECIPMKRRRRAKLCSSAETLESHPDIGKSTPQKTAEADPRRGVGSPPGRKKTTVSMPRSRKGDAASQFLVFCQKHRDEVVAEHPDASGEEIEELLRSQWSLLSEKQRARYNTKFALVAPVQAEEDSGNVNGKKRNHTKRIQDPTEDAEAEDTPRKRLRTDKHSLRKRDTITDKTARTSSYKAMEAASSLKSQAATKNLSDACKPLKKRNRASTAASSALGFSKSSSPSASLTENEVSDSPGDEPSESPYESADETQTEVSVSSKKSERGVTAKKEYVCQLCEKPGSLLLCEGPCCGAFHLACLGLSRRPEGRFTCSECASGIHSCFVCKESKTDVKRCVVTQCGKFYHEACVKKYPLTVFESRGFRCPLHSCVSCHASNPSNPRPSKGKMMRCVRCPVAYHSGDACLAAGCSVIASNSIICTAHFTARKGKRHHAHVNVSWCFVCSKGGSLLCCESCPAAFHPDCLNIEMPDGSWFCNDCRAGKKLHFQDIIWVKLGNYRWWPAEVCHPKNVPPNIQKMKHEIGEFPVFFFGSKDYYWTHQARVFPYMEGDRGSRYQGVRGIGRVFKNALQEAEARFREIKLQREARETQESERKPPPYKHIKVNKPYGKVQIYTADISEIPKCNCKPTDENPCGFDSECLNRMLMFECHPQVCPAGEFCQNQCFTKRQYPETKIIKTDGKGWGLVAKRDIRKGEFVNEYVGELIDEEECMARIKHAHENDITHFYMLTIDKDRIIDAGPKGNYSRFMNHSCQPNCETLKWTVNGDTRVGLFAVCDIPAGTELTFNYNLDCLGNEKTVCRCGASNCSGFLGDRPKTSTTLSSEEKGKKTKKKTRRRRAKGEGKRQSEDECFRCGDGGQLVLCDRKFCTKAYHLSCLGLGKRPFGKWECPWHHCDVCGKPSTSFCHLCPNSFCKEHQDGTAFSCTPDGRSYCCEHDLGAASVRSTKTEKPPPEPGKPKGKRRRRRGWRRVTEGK

Paired box protein Pax-8 = Paired box protein Pax-8 (Homo sapiens, UniProt Q06710); test: PAX8 transcriptional activity inhibition in RMG-I – RMG-I cells, luciferase, cherry-pick, dose response (AID 687027); type: functional, cell-based;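 note: luciferase reporter driven by Pax8 target thyroperoxidase promoter measured by SteadyGlo luminescence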
[3] = target: Mitochondrial peptide methionine sulfoxide reductase (Bos taurus, UniProt P54149); test: Absorbance-based biochemical high throughput dose response assay for activators of Methionine sulfoxide reductase A (MsrA).; type: functional
[4] = target: Tyrosyl-DNA phosphodiesterase 2 (Homo sapiens, UniProt O95551); test: potency against TDP2 phosphodiesterase activity – biochemical, epi absorbance, IC50, dose response (AID 743297)
[5] = Luminescence Cell-Based Dose Response HTS to Identify Inhibitors of 5'UTR Stem-Loop Driven Prion Protein mRNA Translation in H4 Neuroglioblastoma Cells. [Related pubchem assays: 1827 (Project Summary), 1813 (Primary HTS)]; type: functional
[6] = luciferase reporter signal suppression in cells – H4 neuroglioma cells, luminescence, dose response (AID 1990); type: functional, cell-based
[7] = bead-based luminescence quenchers, dual-tagged ARNT – biochemical, AlphaScreen, cherry-pick, artefact control for ARNT-TACC3 interaction inhibitor project, dose response (AID 651705); type: functional;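 note: AlphaScreen bead proximity signal that flags compounds interfering with the detection technology; potency reflects signal decrease which marks the compound as an assay artifact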
[8] = target: Induced myeloid leukemia cell differentiation protein Mcl-1 (Homo sapiens, UniProt Q07820); type: functional
[9] = alpha-synuclein stem-loop luciferase translation blockers – H4 neuroglioma cells, luminescence, confirmation (AID 1988); type: functional, cell-based
[10] = target: T2, ATP-dependent translocase ABCB1 (Homo sapiens, UniProt P08183); test: inhibition of BCRP-mediated JC-1 efflux – Ig-MXP3 cells, flow cytometry, set 2, dose response (AID 504566); type: functional; conditions: read-out: EC50_MICROM_;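 note: flow cytometry median green fluorescence of retained JC-1 dye; potency of efflux pump inhibition measured as rising substrate retention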
[11] = target: T2, ATP-dependent translocase ABCB1; test: P-gp JC-1 efflux blockade concentration-response – Jurkat-DNR cells, flow cytometry, set 2, dose response (AID 504569); type: functional; conditions: read-out: EC50_MICROM_;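 note: potency of pump inhibitors that raise cellular JC-1 green fluorescence up to the nicardipine level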
[12] = target: T3, Low molecular weight phosphotyrosine protein phosphatase (Homo sapiens, UniProt P24666); type: functional; conditions: read-out: IC50_Mean
[13] = target: T3, Low molecular weight phosphotyrosine protein phosphatase; type: functional; conditions: read-out: IC50_Mean; remark: listed apart in the source
[14] = target: T4, Tyrosine-protein phosphatase non-receptor type 22 (Homo sapiens, UniProt Q9Y2R2); test: PTPN22 enzyme inhibitors – biochemical, fluorescence, LYP catalytic domain, selectivity assay for LMPTP inhibitor project, dose response (AID 652006); type: functional; conditions: read-out: IC50_Mean
T4 sequence (Q9Y2R2 whole entry): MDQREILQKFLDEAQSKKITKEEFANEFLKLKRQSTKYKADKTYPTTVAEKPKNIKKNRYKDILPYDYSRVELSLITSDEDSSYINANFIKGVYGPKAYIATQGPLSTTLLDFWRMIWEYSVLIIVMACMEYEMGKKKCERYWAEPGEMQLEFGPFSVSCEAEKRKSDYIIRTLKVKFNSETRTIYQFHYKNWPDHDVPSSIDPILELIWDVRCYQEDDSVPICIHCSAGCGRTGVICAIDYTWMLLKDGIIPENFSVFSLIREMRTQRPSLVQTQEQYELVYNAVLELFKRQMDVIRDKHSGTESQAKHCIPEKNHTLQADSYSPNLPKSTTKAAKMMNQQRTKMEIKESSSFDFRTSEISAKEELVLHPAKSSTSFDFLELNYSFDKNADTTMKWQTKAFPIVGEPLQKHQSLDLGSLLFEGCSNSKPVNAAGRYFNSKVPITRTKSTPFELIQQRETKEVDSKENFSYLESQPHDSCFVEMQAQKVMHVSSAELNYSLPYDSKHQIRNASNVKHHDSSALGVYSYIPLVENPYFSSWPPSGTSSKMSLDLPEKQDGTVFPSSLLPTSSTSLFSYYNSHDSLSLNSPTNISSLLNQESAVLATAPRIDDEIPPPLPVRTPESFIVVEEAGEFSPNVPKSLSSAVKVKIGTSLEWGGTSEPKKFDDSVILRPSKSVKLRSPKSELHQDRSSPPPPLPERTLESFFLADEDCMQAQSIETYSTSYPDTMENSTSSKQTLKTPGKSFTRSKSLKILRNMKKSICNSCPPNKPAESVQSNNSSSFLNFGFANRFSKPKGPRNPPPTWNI

[15] = target: Platelet-activating factor acetylhydrolase (Mus musculus, UniProt Q60963); test: Late stage assay provider results from the probe development effort to identify inhibitors of pPAFAH: fluorescence-based dose-response biochemical gel-based competitive Activity-Based Protein Profiling (ABPP) assay for SAR compounds.; type: functional
[16] = inhibition of ARNT PAS-B/TACC3 complex formation – biochemical, AlphaScreen, cherry-picked samples, confirmation (AID 651703); type: functional, Homo sapiens;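 note: His-tagged ARNT PAS-B domain paired with GST-TACC3 E629A dimer coactivator fragment; potency of inhibitors that break up the complex and lower AlphaScreen signal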

T3 sequence (P24666 whole entry): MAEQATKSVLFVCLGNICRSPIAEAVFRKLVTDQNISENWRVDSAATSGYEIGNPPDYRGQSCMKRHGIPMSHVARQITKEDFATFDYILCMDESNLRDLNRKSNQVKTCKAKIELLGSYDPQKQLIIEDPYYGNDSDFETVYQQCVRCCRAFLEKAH
T2 sequence (P08183 whole entry): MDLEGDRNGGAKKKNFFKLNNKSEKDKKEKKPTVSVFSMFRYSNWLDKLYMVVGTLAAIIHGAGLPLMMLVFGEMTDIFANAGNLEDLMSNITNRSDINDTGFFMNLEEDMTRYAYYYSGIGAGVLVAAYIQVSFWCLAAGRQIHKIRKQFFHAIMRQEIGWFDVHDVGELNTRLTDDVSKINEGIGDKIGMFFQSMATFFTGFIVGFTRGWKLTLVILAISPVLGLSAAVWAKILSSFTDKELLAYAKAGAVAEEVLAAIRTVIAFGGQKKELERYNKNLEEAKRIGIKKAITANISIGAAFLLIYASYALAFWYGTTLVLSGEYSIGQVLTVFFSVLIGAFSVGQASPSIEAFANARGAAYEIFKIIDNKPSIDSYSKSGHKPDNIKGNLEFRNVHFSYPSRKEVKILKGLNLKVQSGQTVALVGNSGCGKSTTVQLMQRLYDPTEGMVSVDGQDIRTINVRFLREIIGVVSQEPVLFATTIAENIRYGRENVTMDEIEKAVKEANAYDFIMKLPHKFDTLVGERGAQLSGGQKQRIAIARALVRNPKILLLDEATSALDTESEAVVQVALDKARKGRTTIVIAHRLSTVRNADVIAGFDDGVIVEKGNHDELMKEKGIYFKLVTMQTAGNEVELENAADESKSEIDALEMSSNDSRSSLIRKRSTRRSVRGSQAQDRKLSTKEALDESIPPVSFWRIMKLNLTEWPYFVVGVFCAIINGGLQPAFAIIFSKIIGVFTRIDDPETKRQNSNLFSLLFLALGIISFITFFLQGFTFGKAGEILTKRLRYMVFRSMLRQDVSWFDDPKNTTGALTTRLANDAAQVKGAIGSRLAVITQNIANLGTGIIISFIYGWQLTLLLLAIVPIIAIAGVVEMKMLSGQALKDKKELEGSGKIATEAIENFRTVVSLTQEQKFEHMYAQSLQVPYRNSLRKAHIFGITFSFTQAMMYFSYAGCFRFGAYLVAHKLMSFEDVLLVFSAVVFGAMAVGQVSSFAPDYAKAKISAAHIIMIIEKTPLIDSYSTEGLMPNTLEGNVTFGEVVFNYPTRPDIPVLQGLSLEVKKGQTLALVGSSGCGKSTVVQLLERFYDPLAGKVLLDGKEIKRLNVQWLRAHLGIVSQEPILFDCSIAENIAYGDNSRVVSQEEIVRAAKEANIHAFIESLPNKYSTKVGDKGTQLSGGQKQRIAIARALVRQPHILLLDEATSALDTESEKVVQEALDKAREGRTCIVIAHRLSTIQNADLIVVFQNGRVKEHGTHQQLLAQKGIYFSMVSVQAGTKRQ
Sequence of Potassium voltage-gated channel subfamily KQT member 2 (O88943 whole entry): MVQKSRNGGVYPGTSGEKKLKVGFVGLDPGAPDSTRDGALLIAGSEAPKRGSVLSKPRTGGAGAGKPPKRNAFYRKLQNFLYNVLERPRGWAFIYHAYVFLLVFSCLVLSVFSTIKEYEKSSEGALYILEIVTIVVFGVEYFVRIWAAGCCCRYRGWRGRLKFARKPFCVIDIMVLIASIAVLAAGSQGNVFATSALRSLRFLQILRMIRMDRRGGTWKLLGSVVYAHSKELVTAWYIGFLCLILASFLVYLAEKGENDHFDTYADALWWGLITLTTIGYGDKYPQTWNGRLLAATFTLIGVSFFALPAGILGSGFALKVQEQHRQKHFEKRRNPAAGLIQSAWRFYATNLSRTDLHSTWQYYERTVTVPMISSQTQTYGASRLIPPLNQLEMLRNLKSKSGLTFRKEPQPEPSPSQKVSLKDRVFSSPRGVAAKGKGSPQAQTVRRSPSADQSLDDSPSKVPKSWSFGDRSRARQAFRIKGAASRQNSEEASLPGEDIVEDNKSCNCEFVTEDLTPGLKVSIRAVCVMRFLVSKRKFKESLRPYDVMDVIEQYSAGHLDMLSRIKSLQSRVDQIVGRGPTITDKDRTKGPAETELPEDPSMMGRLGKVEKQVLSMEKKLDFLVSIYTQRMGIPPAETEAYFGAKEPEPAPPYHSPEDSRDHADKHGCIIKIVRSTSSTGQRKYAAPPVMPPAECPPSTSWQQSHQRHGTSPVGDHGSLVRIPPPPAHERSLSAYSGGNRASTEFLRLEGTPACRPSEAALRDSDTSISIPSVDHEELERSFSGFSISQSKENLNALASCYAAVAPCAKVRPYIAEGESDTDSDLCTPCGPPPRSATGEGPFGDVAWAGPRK
Sequence of Induced myeloid leukemia cell differentiation protein Mcl-1 (Q07820 whole entry): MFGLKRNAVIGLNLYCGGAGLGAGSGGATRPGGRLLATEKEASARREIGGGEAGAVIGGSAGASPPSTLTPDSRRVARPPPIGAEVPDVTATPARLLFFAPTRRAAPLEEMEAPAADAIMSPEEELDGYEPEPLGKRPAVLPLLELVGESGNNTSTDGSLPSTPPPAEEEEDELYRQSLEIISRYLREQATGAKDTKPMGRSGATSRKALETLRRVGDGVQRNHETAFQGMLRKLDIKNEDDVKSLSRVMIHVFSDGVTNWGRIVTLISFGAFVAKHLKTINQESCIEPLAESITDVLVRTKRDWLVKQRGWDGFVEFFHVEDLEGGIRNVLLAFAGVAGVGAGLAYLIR
Sequence of Platelet-activating factor acetylhydrolase (Q60963 whole entry, the tested form may be a part): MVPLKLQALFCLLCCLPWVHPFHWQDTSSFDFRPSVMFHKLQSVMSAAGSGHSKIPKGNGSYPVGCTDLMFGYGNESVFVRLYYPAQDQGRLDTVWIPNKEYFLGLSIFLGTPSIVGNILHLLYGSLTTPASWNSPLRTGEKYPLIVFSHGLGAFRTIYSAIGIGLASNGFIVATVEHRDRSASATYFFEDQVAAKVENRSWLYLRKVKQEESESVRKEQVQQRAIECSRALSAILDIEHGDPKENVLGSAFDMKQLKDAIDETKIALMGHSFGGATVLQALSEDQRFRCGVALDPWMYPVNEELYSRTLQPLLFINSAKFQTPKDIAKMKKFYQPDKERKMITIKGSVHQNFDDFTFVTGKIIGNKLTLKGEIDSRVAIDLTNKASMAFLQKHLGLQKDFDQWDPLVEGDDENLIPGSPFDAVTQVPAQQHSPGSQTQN
Sequence of Mitochondrial peptide methionine sulfoxide reductase (P54149 whole entry): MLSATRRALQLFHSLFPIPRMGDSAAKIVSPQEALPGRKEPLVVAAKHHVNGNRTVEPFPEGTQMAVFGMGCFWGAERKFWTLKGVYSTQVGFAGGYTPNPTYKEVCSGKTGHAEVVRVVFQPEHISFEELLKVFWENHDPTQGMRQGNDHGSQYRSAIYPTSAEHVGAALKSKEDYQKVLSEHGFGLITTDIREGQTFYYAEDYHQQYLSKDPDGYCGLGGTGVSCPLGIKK
Sequence of Tyrosyl-DNA phosphodiesterase 2 (O95551 whole entry): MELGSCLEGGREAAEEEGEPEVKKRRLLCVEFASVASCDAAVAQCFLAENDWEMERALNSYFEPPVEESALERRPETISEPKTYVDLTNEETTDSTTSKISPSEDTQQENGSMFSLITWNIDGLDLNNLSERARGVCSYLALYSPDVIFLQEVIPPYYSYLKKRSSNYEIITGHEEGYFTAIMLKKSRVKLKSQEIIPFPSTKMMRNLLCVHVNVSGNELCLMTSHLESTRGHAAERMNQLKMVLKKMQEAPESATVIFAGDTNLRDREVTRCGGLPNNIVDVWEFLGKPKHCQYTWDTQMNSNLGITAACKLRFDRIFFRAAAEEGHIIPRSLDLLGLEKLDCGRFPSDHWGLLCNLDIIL
Sequence of Paired box protein Pax-8 (Q06710 whole entry): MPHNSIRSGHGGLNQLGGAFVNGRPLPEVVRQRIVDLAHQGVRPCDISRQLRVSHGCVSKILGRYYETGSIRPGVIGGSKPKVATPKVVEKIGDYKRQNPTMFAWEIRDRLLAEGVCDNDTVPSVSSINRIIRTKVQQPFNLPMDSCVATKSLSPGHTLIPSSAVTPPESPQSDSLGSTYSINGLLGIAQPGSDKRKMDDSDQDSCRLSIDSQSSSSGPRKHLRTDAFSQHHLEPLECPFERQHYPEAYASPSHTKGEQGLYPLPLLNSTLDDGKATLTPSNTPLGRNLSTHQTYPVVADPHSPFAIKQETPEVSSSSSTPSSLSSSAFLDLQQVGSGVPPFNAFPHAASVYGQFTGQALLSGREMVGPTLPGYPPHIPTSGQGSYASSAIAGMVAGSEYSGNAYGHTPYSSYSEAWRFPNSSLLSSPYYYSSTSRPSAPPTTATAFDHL

Question: With O=C(COc1ccc(F)cc1)N(c1ccccn1)C1CCCCC1 as the compound, how does the IC50 [1] read?
Answer: The IC50 was 1.49 µM (active).

Question: With NC1=CC(=O)C(=O)c2cccnc21 as the compound, how does the AC50 [2] read?
Answer: Its AC50 is 0.546 µM (active).

Question: And the AC50 (Paired box protein Pax-8)?
Answer: Its AC50 is 10.5 µM (active).

Question: What about the EC50 [3] of the same compound?
Answer: The EC50 was > 34.6 µM (inactive).

Question: What about the IC50 [4] of the same compound?
Answer: Its IC50 is 5.99 µM (active).

Question: Which results are given for COc1cc2c(cc1O)C[C@H]1NCCc3cc4c(c-2c31)OCO4?
Answer: EC50 [5]: 85.6 µM (active); EC50 [6]: 13.2 µM (active); AC50 [7]: 84.2 µM (active); IC50 [8]: 5.61 µM (active); EC50 [9]: > 120 µM (not active)

Question: With O=C(c1ccoc1)N1CCN(c2cc(-c3cccnc3)nc3cc(-c4cccc(Cl)c4)nn23)CC1 as the compound, how does the EC50 [10] read?
Answer: The EC50 was 0.26 µM (active).

Question: And the EC50 [11]?
Answer: Its EC50 is 0.97 µM (active).

Question: For CC(=O)Nc1ccc(CNc2nc(NCc3cccs3)nc3ccsc23)cc1, which IC50 [12] is on record?
Answer: The IC50 was 15.5 µM (active).

Question: What about the IC50 [13] of the same compound?
Answer: Its IC50 is 13.6 µM (active).

Question: What about the IC50 [14] of the same compound?
Answer: The IC50 was 49.5 µM (inactive).

Question: With Cc1cc(N2CCN(C(=O)Oc3ccc(C(F)(F)F)cc3)CC2)c2ccccc2n1 as the compound, how does the IC50 [15] read?
Answer: Its IC50 is 0.041 µM (active).

Question: Which AC50 [16] does the source give for CN1CCN(/N=C/c2nc(-c3ccccc3Cl)n3ccccc23)CC1 here?
Answer: Its AC50 is 75.6 µM (active).
